Test results published in US4338302A, “Herbicolin and microbiological method for the preparation thereof” (priority 1979, dated 1982).
Where a SMILES comes first, the peptide text is derived from it. [ ]: non-standard residue; d: D form. Phe(ol) = N[C@H](CO)Cc1ccccc1; Aib = CC(C)(N)C(=O)O

What was measured:
Neurospora crassa [1] = assay: Comparative plate diffusion test with other conventional antifungal substances (Example 5 (1)); assay type: cell-based
Description: (§1) Respectively, 10 μg of the corresponding antibiotics is pipetted in the form of a methanolic solution on the filter plates and, after drying, placed on a nutrient substrate inoculated with Neurospora crassa spores.

Neurospora crassa [2] = assay: Comparative plate diffusion test with membrane-modifying peptide antibiotics (Example 5 (2)); assay type: cell-based; settings: 10 μg/plate; in words
Description: as §1
(2) In the same manner, various membrane-modifying peptide antibiotics are comparison-tested with herbicolin A:
Trichotoxin A 40, Suzukazillin, Alamethicin F 50, and herbicolin A, respectively, 10 μg/plate.

Q: For `C[C@@H]1[C@H](O)[C@@H](C)/C=C/C=C/C=C/C=C/C=C/C=C/C=C/[C@H](O[C@@H]2O[C@H](C)[C@@H](O)[C@H](N)[C@@H]2O)C[C@@H]2O[C@](O)(C[C@@H](O)C[C@@H](O)[C@H](O)CC[C@@H](O)C[C@@H](O)CC(=O)O[C@H]1C)C[C@H](O)[C@H]2C(=O)O` [amphotericin], which zone of inhibition at 10 µg/disc (Neurospora crassa [1]; Neurospora crassa, 18 h, read-out: inhibition zone) is on record?
A: The zone of inhibition at 10 µg/disc was about 10 mm.

Q: `COC1=CC(=O)C[C@@H](C)[C@]12Oc1c(Cl)c(OC)cc(OC)c1C2=O` [griseofulvin] was tested. Which inhibition zone (Neurospora crassa [1]; 10 μg on filter plate, 18 hours, 27° C.) did it give?
A: The inhibition zone was “no inhibition zone”.

Q: Which inhibition zone (Neurospora crassa [2]) does the source give for `CC(=O)NC(C)(C)C(=O)N1CCC[C@H]1C(=O)NC(C)(C)C(=O)N[C@@H](C)C(=O)NC(C)(C)C(=O)N[C@@H](C)C(=O)N[C@@H](CCC(N)=O)C(=O)NC(C)(C)C(=O)N[C@H](C(=O)NC(C)(C)C(=O)NCC(=O)N[C@@H](CC(C)C)C(=O)NC(C)(C)C(=O)N1CCC[C@H]1C(=O)N[C@H](C(=O)NC(C)(C)C(=O)NC(C)(C)C(=O)N[C@@H](CCC(=O)O)C(=O)N[C@@H](CCC(N)=O)C(=O)N[C@H](CO)Cc1ccccc1)C(C)C)C(C)C` [Alamethicin] (Ac-[Aib]P[Aib]A[Aib]AQ[Aib]V[Aib]GL[Aib]PV[Aib][Aib]EQ[Phe(ol)]) here?
A: The inhibition zone was “only a weak inhibition zone”.
